Data taken from patent publication US7368100B2, “Backbone-substituted bifunctional DOTA ligands, complexes and compositions thereof, and methods of using same” (The United States of America, represented by the Secretary, …, priority 2002, dated 2008).

Columns and labels:
[1] = tested on: HER2 positive cells (N87); experiment: Live-cell radioimmunoassay (immunoreactivity) of radiolabeled HERCEPTIN preparations; format: binding, human; conditions: for HER2 + (percent binding): N87 cells, overnight 4° C., average of the serial dilutions; for HER2 − (percent binding): column HER2 −, not explained, text describes incubation with excess (10 μg) unlabeled HERCEPTIN
Procedure: The human colon carcinoma (LS-174T) cell line was grown in supplemented Eagle's minimum essential medium as previously described (see Brechbiel et al., Inorg Chem., 25, 2772 (1986); and Lagunas-Solar et al., Appl. Radiat. Isot., 38, 129-137 (1987)). The human gastric carcinoma cell line (N87) was kindly provided by Dr. Raya Mandler, Metabolism Branch, NCI. The N87 cell line (Jurcic et al., Advances in Pharmacology, Vol. 33, (J. T. August, M. W. Anders, F. Murad, J. T. Coyle Eds.) pp 287-314, Academic Press, Inc., New York, (1995)), which expresses high levels of HER2, was maintained in RPMI 1640 (Quality Biologicals, Gaithersburg, Md.) medium, supplemented with 10% fetal bovine serum (FBS) (Gemini Bio-Products, Woodland, Calif.) and 0.01 mM non-essential amino acids (Quality Biologicals, Gaithersburg, Md.).
The immunoreactivity of the RIC was assessed in a live-cell radioimmunoassay (RIA) as detailed elsewhere (Garmestani et al., Nuci. Med. Biol., 29, 599-606 (2002)). HER2 positive cells (N87) were harvested, pelleted at 1,000×g (Allegra 6KR; Beckman Coulter, Palo Alto, Calif.) and resuspended in PBS (pH 7.2) containing 1% BSA and were added to 12×75 […] polypropylene tubes (1×10^6 cells in 100 μL). Serial dilutions of the radiolabeled HERCEPTIN preparations (about 200,000 cpm -12,500 cpm in 50 μL) were then added in duplicate and gently shaken. Following an overnight incubation at 4° C., the cells were washed once with 4 mL of 1% BSA in PBS and pelleted at 1,000×g for 5 min, and the supernatant was decanted. The pelleted cells were then counted in a γ-scintillation counter (Packard), and the percent binding was calculated for each dilution. The values presented in Table 1 are an average of the serial dilutions. To confirm the specific reactivity of the RIC, cells were incubated with about 200,000 cpm of the RIC along with an excess (10 μg) of unlabeled HERCEPTIN.

[2] = tested on: human colon carcinoma (LS-174T) xenografts; conditions: mouse, in vivo
Procedure: The radioimmunoconjugates (RICs) were compared in vivo using athymic mice bearing human colon adenocarcinoma xenografts. Female athymic mice (nu/nu), obtained from Charles River Laboratories (Wilmington, Mass.) at 4-6 weeks of age, were injected subcutaneously on the flank with 2×10^6 LS-174T cells in 0.2 mL of RPMI-1640. At approximately 10-14 days, when the tumors measured between 0.4-0.6 cm in diameter, the mice received the ^177Lu-labeled HERCEPTIN. The mice were injected with each RIC (about 5 μCi of each) intravenously (i.v.) via the tail vein. Mice (n=5) were sacrificed by exsanguination at 24, 48, 72, 96 and 168 h.
Blood, tumor and the major organs were collected and wet-weighed, and the radioactivity was counted in a γ-counter (Minaxi-γ, Packard, Downers Grove, Ill.). The percent injected dose per gram (% ID/g) was determined for each tissue as well as the radiolocalization indices (% ID/g in tumor divided by the % ID/g in the normal tissue). The mean and average deviation for each tissue was also calculated.
Following injection of the radioimmunoconjugates (n=5), blood samples were collected at various time points via the tail vein in heparinized capillary tubes (10 μL). The blood was transferred to a tube, and the radioactivity was measured in a γ-counter. The percent injected dose per mL of blood was calculated for each of the samples.
If the radioactivity in the tissues is due to specific accumulation, then the tissue-to-blood ratio would increase as a function of time. If the radioactivity in the tissues is a result of that radioactivity present in the plasma compartment, then the tissue-to-blood ratio would remain constant with time.

leukemia cell line = conditions: directed against a leukemia cell line; Nikula et al. 1999; cited from earlier work

## 1B4M-DOTA (7)
[1]
  HER2 + (percent binding): 47.2%
  HER2 − (percent binding): 6.7%
[2]
  liver % ID/g, comparison among RIC: lowest liver % ID/g values throughout the entire study period
  spleen-to-blood ratios: less than 1

## Bismuth-labeled HuM195
Leukemia cell line
  cell killing ability: specific and potent cell killing ability

## CHX-DOTA (14)
[1]
  HER2 + (percent binding): 45.8%
  HER2 − (percent binding): 4.3%
[2]
  femur-to-blood ratios, course over time: higher overall than the other RIC
  spleen-to-blood ratios: less than 1
